{"source": "paper PMC10723784", "about": "“Investigation of the cytotoxicity induced by cannabinoids on human ovarian carcinoma cells” (Pharmacology Research & Perspectives, 2023)", "key": {"[1]": {"test_system": "caspase 3/7 activity in A2780 cells", "assay": "Caspase 3/7 assay, A2780 cells", "type": "cell-based, human", "conditions": "A2780, 24 h contact time, dose-dependent, significant above 10 μM", "method": "(§1) Sensolyte homogenous caspase 3/7 assay kit was used to determine the caspase activity in ovarian cancer cells when treated with CBG. Cells were seeded in 96‐well plate at 6 × 10^3 cells per well and were incubated for 24 h. CBG was added in concentrations of 10, 20, 30, and 50 μM and incubated for a further 24 h. After the incubation time elapsed, the media was removed and replaced with 150 μL/well of fresh complete media. Caspase 3/7 solution was prepared by diluting the caspase substrate 1:100 with DTT‐containing assay buffer. 50 μL/well caspase substrate was added to the plates, and the cells were incubated for 30 min. Ac‐DEVD‐AMC serves as the fluorogenic indicator for assaying caspase‐3/7 activity. Ac‐DEVD‐AMC generates the AMC fluorophore in the presence of caspase 3/7, which produces bright blue fluorescence. The fluorescence was measured by the FLOUstar OPTIMA plate reader with the excitation at 354 nm and emission at 442 nm.\n(§2) The level of caspase 3/7 was also determined using Apotox‐Glo Triple assay. Cells were seeded and drugs were added as described above in Section 2.6.1. After 24 h incubation, caspase 3/7 reagent was prepared by mixing caspase buffer and substrate and 100 μL of reagent was added to each well for 30 min incubation at room temperature. […] The luminescence was measured by the FLOUstar OPTIMA plate reader."}, "[2]": {"test_system": "caspase 3/7 activity in A2780/CP70 cells", "assay": "Caspase 3/7 assay, A2780/CP70 cells", "type": "cell-based, human", "conditions": "A2780/CP70, 24 h contact time, dose-dependent, significant above 10 μM", "method": "as §1, §2"}, "A2780/CP70 cells [3]": {"test_system": "A2780/CP70 cells", "assay": "Annexin V assay, A2780/CP70 cells", "type": "cell-based, human", "conditions": "A2780/CP70, 50 μM, 24 h", "method": "(§3) The Annexin V assay was performed to differentiate healthy cells from early and late apoptotic cells. Cells were seeded in T25 flasks at 2.75 × 10^5 cells per flask and were incubated for 24 h. After the incubation time elapsed, drugs at concentrations of 10, 30, and 50 μM or vehicle were added to the flasks and further incubated for 24 h. Cells were suspended in PBS at a density of 4 × 10^5 cells/mL, followed by centrifugation at 400 g for 5 min. The supernatant was removed and replaced with 100 μL of Annexin V mix, 94 μL of Roche buffer, 2 μL of Annexin V‐CF488A, 2 μL of 10 μg/mL of propodium iodide (PI), and 2 μL of Hoechst 33342 buffer. Hoechst 33342 buffer in the Annexin V mix binds to the nuclei in the sample and fluoresces violet. The early apoptotic cells are stained with Annexin V‐CF488A, which fluoresces green. The non‐viable cells are stained by PI, and the late apoptotic cells are stained by both PI and Annexin V‐CF488A, which fluoresces red and green, respectively. […] After the incubation time elapsed, 40 μL of samples were loaded on to an A‐2 slide and were analyzed immediately using the NC‐3000 system. The scatter plot of the fluorescence intensity of Annexin V‐CF488A versus the fluorescence intensity of PI was used as a representation of cells in different stages of apoptosis."}, "[4]": {"assay": "MTT cytotoxicity assay, non-cancer PNT2 cells", "conditions": "human, PNT2 normal prostate epithelial cells", "experimental": "(§4) Human ovarian carcinoma cells, A2780 (sensitive to chemotherapeutics), A2780/CP70 (resistant to chemotherapeutics), and non‐cancerous cells including PNT2 (normal prostate epithelial cell line), and/or ARPE19 (human retinal pigment cell line) were maintained according to the ATCC and ECACC guidelines.\n(§5) In vitro chemosensitivity assays were performed using the MTT assay as previously described.[32], [33] Briefly, at 70% confluency, cells were seeded in 96‐well plates at a density of 2000 cells/well. […] After the allocated contact time had elapsed, the media was removed and 0.5% (w/v) MTT solution diluted in complete media (200 μL) was added to each well. Following a 4 h incubation, the supernatants were removed, and the formazan crystals were dissolved in dimethylsulfoxide (150 μL). The absorbance was read at 540 nm on a Tecan Infinite 50 plate UV reader."}, "[5]": {"assay": "MTT cytotoxicity assay, non-cancer ARPE19 cells", "conditions": "human, ARPE19 non-cancer retinal pigment cells", "experimental": "as §4, §5"}, "A2780 cells": {"test_system": "A2780 cells", "assay": "MTT cytotoxicity assay, A2780 cells", "conditions": "for IC50: Homo sapiens, read-out: IC50 cytotoxicity", "method": "In separate experiments, cells were seeded in 96‐well plates and after 24 h elapsed they were exposed to different concentrations of drugs or vehicle. Cells were then left in the incubator for a further 24 or 48 h. Then the media was replaced with fresh media containing no drug and the cells were left in the incubator. MTT assay was performed after 96 h elapsed from the time when cells were exposed to drugs or vehicle.\nThe cells were then left in the incubator and MTT assay was performed 96 h following the initial exposure to the drugs.\nThe selective index (SI) is the ratio of mean IC50 values for non‐cancer cells to cancer cells. […] While the isobologram can be considered predominantly as a graphical depiction of drug interactions, the combination index (CI) is a quantitative representation. It relates the actual drug concentration in the combination to the concentration of the single drug that achieves the same effect. […] Here, CI analysis was used to investigate combinations at 50% cytotoxicity. To this end the IC50 of the viability dose–response curves were determined by non‐linear regression curve fit analysis (GraphPad Prism, v5.00).\nCIA+B is the combination index of A and B; C A the concentration of A applied in combination; C B the concentration of B applied in combination; IC50 A the IC50 of drug A when it was applied individually to the cells; IC50 B = IC50 of drug B when it was applied individually to the cells."}, "A2780/CP70 cells [6]": {"test_system": "A2780/CP70 cells", "assay": "Cell cycle analysis (DAPI, NC-3000), A2780/CP70 cells", "type": "cell-based, human", "conditions": "48 h", "method": "Cells were seeded in T25 flasks at 4 × 10^5 cells per flask and were incubated for 48 h or until they reached confluency. […] After the incubation time elapsed cells were suspended in PBS with a density closer to 1 × 10^6cells/mL. The cells were washed twice with 1× PBS before the addition of 250 μL of lysis buffer (solution 10) supplemented with 10 μg/mL DAPI (solution 12) was added to the samples and incubated for 5 min at 37°C. After incubation, 250 μL of stabilization buffer (solution 11) was added. 12.5 μL of samples were loaded on to an A‐8 slide and were analyzed using the NC‐3000 system."}, "ARPE19 cells": {"test_system": "ARPE19 cells", "assay": "Annexin V assay, ARPE19 cells", "type": "cell-based, human", "conditions": "ARPE19, 50 μM, 24 h", "method": "as §3"}}, "note": "Like-named read-outs stand apart in the source and are kept apart here."}
{"smiles": "CCCCCc1cc(O)c(C/C=C(\\C)CCC=C(C)C)c(O)c1", "note": "[CBG, cannabigerol]", "values": [{"measurement": "Caspase 3/7 activity", "setting": "[1]", "result": "increased the caspase 3/7 activity"}, {"measurement": "Caspase 3/7 activity", "setting": "[2]", "result": "increased the caspase 3/7 activity"}, {"measurement": "Cells in early apoptosis", "setting": "A2780/CP70 cells [3]", "result": "72 ± 1.4", "unit": "%"}, {"measurement": "Cells in late apoptosis", "setting": "A2780/CP70 cells [3]", "result": "9 ± 1.4", "unit": "%"}, {"measurement": "IC50 at 24 h", "setting": "[4]", "result": "37.2 ± 2.1", "unit": "µM"}, {"measurement": "IC50 at 48 h", "setting": "[4]", "result": "22.9 ± 1.5", "unit": "µM"}, {"measurement": "IC50 at 72 h", "setting": "[4]", "result": "19.9 ± 0.3", "unit": "µM"}, {"measurement": "IC50 at 96 h", "setting": "[4]", "result": "18.3 ± 1.3", "unit": "µM"}, {"measurement": "IC50 at 24 h", "setting": "[5]", "result": "32.1 ± 1.8", "unit": "µM"}, {"measurement": "IC50 at 48 h", "setting": "[5]", "result": "21.2 ± 2.7", "unit": "µM"}, {"measurement": "IC50 at 72 h", "setting": "[5]", "result": "19.2 ± 1", "unit": "µM"}, {"measurement": "IC50 at 96 h", "setting": "[5]", "result": "17.4 ± 2.4", "unit": "µM"}, {"measurement": "IC50", "setting": "A2780 cells; A2780, 24 h", "result": "15.3 ± 0.3", "unit": "µM"}, {"measurement": "IC50", "setting": "A2780 cells; A2780, 48 h", "result": "13.9 ± 0.6", "unit": "µM"}, {"measurement": "IC50", "setting": "A2780 cells; A2780, 72 h", "result": "9.4 ± 0.8", "unit": "µM"}, {"measurement": "IC50", "setting": "A2780 cells; A2780, 96 h", "result": "5.7 ± 0.2", "unit": "µM"}, {"measurement": "Selectivity index", "setting": "A2780 cells; IC50 ARPE19 / IC50 A2780, 24 h", "result": 2.09}, {"measurement": "Selectivity index", "setting": "A2780 cells; IC50 ARPE19 / IC50 A2780, 48 h", "result": 1.53}, {"measurement": "Selectivity index", "setting": "A2780 cells; IC50 ARPE19 / IC50 A2780, 72 h", "result": 2.04}, {"measurement": "Selectivity index", "setting": "A2780 cells; IC50 ARPE19 / IC50 A2780, 96 h", "result": 3.05}, {"measurement": "Selectivity index", "setting": "A2780 cells; IC50 PNT2 / IC50 A2780, 24 h", "result": 2.43}, {"measurement": "Selectivity index", "setting": "A2780 cells; IC50 PNT2 / IC50 A2780, 48 h", "result": 1.65}, {"measurement": "Selectivity index", "setting": "A2780 cells; IC50 PNT2 / IC50 A2780, 72 h", "result": 2.12}, {"measurement": "Selectivity index", "setting": "A2780 cells; IC50 PNT2 / IC50 A2780, 96 h", "result": 3.20}, {"measurement": "Cells in G0/G1 phase", "setting": "A2780/CP70 cells [6]; A2780/CP70, 10 μM", "result": "86.4 ± 0.5", "unit": "%"}, {"measurement": "Cells in G0/G1 phase", "setting": "A2780/CP70 cells [6]; A2780/CP70, 30 μM", "result": "90.6 ± 0.4", "unit": "%"}, {"measurement": "Cells in S phase", "setting": "A2780/CP70 cells [6]; A2780/CP70, 30 μM", "result": "5.6 ± 0.6", "unit": "%"}, {"measurement": "Cells in G2/M phase", "setting": "A2780/CP70 cells [6]; A2780/CP70, 50 μM", "result": "16.4 ± 1.9", "unit": "%"}, {"measurement": "Cells in early apoptosis", "setting": "ARPE19 cells", "result": "54 ± 2.1", "unit": "%"}, {"measurement": "Cells in late apoptosis", "setting": "ARPE19 cells", "result": "5.6 ± 1.8", "unit": "%"}]}
